Test results from patent US10947260B2, “Phosphinolactone derivatives and pharmaceutical uses thereof” (INSTITUT NATIONAL DE LA SANTE ET DE LA RECHERCHE MEDICALE …, priority 2016, dated 2021).

Assays:
[1] = test system: mice treated with scopolamine; experiment: Spontaneous alternation in Y-maze, scopolamine amnesia model; assay type: in vivo; conditions: IP; scopolamine model
Experimental: FIG. 5: Anti-amnesic effect of compound 3b in mice treated with scopolamine: (a, b) spontaneous alternation in Y-maze, and (c, d) passive avoidance. The mice were given compound 3b (0.03-1.5 mg/kg IP) 10 min before scopolamine (0.5 mg/kg SC), 20 min before the Y-maze session or passive avoidance training. Y-maze test: (a) spontaneous alternation and (b) total number of arm entries; retention of passive avoidance: (c) step-through latency and (d) escape latency. ANOVA: F(6.94)=5.32, p<0.0001 at (a); F(6.94)=10.6, p<0.0001 at (b); H=31.4, p<0.0001 at (c); H=24.3, p<0.001 at (d); n=12-19 per group. *p<0.05, **p<0.01, ***p<0.001 compared with group (Sc.Aβ+V); #p<0.05, ##p<0.01, ###p<0.001 compared with group (Aβ25-35+V); Dunnett test at (a, b) and Dunn at (c, d).
FIG. 6: Analysis of the antagonism of anti-amnesic effects of compound 3b in mice treated with scopolamine: (a, c, e) spontaneous alternation in Y-maze, and (b, d, f) step-through latency at recall session of passive avoidance. The mice were treated with methyllycaconitine (MLA, 1 or 3 mg/kg IP), dihydro-ß-erythroidine (DHßE, 1 or 3 mg/kg IP), or NE100 (1 mg/kg IP), simultaneously with compound 3b (0.1 mg/kg IP) 10 min before scopolamine (S, 0.5 mg/kg SC), 20 min before behavioural session. ANOVA: F(5.87)=7.19, p<0.0001 at (a); H=31.3, p<0.0001 at (b); F(5.82)=5.82, p<0.0001 at (c); H=28.8, p<0.0001 at (d); F(4.77)=10.0, p<0.0001 at (e); H=30.5, p<0.0001 at (f); n=12-17 per group. *p<0.05, **p<0.01, ***p<0.001 compared with group (Sc.Aβ+V); #p<0.05, ##p<0.01, ###p<0.001 compared with group (Aβ25-35+V); Dunnett test at (a, b) and Dunn at (c, d).
The animals were tested for spontaneous alternation performance in a Y-maze, an index of spatial working memory. The Y-maze was in grey PVC. Each arm was 40 cm long, 13 cm high, 3 cm wide at the base and 10 cm wide in the upper part, and converging at an equal angle. Each mouse was placed at one end of an arm and was able to move freely through the maze during an 8-min session. The series of arm entries, including any returns in the same arm were visually analysed. Alternation is defined as being consecutive entries in three different arms. The maximum number of alternations is therefore the total number of arm entries less two, and alternation percentage is calculated as (actual alternations/maximum possible alternations)×100. […]
Finally, a first mechanistic analysis of the pharmacological effect in vivo of compound 3b was carried out. With the objective of confirming that the compound, neuroprotective against amyloid toxicity, could also be anti-amnesic in a pharmacological amnesia model, we first determined its effectiveness against the amnesic effects of scopolamine. […]

APPSwe mice = experiment: Object recognition test, APPSwe mice; assay type: in vivo; conditions: 2-month treatment
Experimental: FIG. 9: Spatial learning in pool (a-c) and object recognition (d-f) for APPSwe mice after 2-month treatment with compound 3b. Pool: acquisition profiles of WT mice treated with V and 3b (2 mg/kg) (a) or APPSwe mice (b). (c) Presence in training quadrant (T) and mean in the other quadrants (o) during trial test performed 48 h after the last training session. Friedman non-parametric ANOVA with repeated measures: Fr=21.7, p<0.001 for the group WT/V, Fr=21.8, p<0.001 for the group WT/3b at (a); Fr=13.0, p<0.05 for group APPSwe/V, Fr=12.2, p<0.05 for group APPSwe/3b at (b). […]
The apparatus consisted of four square-shaped arenas (50 cm×50 cm×50 cm in height) made of white plexiglass and placed on a platform equipped with infrared light-emitting diodes (IR). The locomotor activity of the animal and position of the nose were able to be captured by an IR-sensitive camera and analysed using Videotrack and Nosetrack software. […] Each mouse was placed in the open field and exploratory activity and nose position were recorded for 10 min. Activity was analysed in terms of number of contacts with the objects and contact time. […] Each mouse was again placed in the open field and exploratory activity recorded for 10 min. Activity was analysed in similar manner. […]

SMILES | effective dose (anti-amnesic) [1] | decrease in number of contacts with objects, APPSwe animals (APPSwe mice; 1 mg/kg/d) | deficit of novel object preference (contacts, contact time), APPSwe animals (APPSwe mice; session 3)
CC1(C)COP(=O)(c2cccc(Cl)c2)C(C)(C)N1 (racemic) [Compound 3b, (±)-2-(3-Chlorophenyl)-2-oxo-3,3,5,5-tetramethyl-[1,4,2]-oxazaphosphinane] | 0.1 mg/kg |  | 
CC1(C)COP(=O)(c2ccc(Cl)cc2)C(C)(C)N1 (racemic) [Compound 3c, (±)-2-(4-Chlorophenyl)-2-oxo-3,3,5,5-tetramethyl-[1,4,2]-oxazaphosphinane] |  | blocked | significantly blocked or attenuated
